{
  "source": "patent US5652271A",
  "about": "“Therapeutic agents” (Knoll Aktiengesellschaft, priority 1993, dated 1997)",
  "key": {"[1]": {"system": "ptosis (eye closure) induced by reserpine", "assay": "prevention of ptosis (eye closure) induced by reserpine in rats", "format": "in vivo, rat (male, Charles River CD strain)", "text": "Male rats of the Charles River CD strain weighing between 140 and 180 g were randomly separated into five rats in each cage and supplied with food and water ad libitum. Eighteen hours prior to initiation of the test four of the five rats were marked with a pen such that each rat was individually identifiable; food was then withdrawn. The following morning, two hours before the test, the rats were weighed and a semi-randomised code was used to allocate treatments to rats. The test commenced by orally administering either:\nThe degree of ptosis was scored […] later using the following observer rating system: 0=eye fully open, 1=eye 1/4closed, 2=eye 1/2closed, 3=eye 3/4closed, 4=eye fully closed. A mean ptosis score was then calculated for all identically treated rats usually comprising a group of eight rats. […] It is widely understoodby those skilled in the art that this test is indicative of compounds having antidepressant activity in humans."}, "dopamine reuptake sites": {"molecular_target": "dopamine reuptake sites (Rattus norvegicus, UniProt P23977)", "sequence (P23977 whole entry)": "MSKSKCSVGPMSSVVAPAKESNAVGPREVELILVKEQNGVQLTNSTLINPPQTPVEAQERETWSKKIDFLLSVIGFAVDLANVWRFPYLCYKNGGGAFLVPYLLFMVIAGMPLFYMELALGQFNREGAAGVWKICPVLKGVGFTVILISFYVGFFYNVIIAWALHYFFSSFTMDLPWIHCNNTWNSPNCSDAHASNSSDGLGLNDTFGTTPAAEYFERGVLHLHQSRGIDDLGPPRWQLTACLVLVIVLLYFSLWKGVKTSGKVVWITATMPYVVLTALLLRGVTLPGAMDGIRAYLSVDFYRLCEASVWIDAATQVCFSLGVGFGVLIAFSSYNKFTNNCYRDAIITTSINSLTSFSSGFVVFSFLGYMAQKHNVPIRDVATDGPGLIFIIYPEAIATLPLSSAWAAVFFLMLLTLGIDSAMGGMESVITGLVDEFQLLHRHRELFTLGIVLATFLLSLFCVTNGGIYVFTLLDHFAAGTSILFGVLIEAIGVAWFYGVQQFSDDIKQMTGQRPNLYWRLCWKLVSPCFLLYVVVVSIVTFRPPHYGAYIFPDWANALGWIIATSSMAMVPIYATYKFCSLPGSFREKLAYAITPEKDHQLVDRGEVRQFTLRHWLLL", "assay": "inhibition of [3H]dopamine uptake in vitro in rat striatal synaptosomes", "format": "biochemical, rat (male Charles River)", "conditions": "[3H]dopamine (2.5 nM) uptake, 5 minutes at 37° C.; calculated from IC50; means ± sem of three independent determinations", "procedure": "Striatal tissue from the brains of male Charles River rats weighing 150-250 g was homogenised in ice-cold 0.32M sucrose (1:10 w/v) using a motor driven teflon pestle (difference in diameter between mortar and pestle 0.5 mm). Nuclei and cell debris were removed by centrifugation at 1,500 g at 4° C. for 10 minutes. The pellet (P1) was discarded and the supernatant centrifuged at 18,000 g at 4° C. for 10 minutes. The crude synaptosomal pellet (P2) was resuspended in Krebs-Henseleit buffer (equivalent to 4.2 mg wet weight of tissue/ml).\nCrude synaptosomes were incubated in a shaking water bath at 37° C. for 15 minutes. Aliquots (150 μl; equivalent to 0.625 mg wet weight of tissue/tube) were then added to tubes containing 275 μl of Krebs-Henseleit buffer and 50 μl of Krebs-Henseleit buffer (total uptake) or 50 μl of test compound (10 concentrations ranging from 10-11-10-4M) or 50 μl of GBR 12909 (10^-5M; non-specific uptake). Uptake was initiated by the addition of 25 μl of freshly prepared [3H]dopamine(2.5 nM), followed by vortexing and was continued for 5 minutes at 37° C. in the shaking water bath.\nUptake was terminated by filtration under vacuum through Skatron 11735 filters using a Skatron cell harvester. Filters were than washed with 8 ml ice-cold saline. The scored filter paper discs were punched into vials, scintillation fluid added and radioactivity determinedby liquid scintillation counting.\nThe percentage inhibition of specific uptake of the tritiated ligand was calculated for each concentration of test compound. Inhibition curves were then produced. The concentration of compounds which gave 50% inhibition of specific uptake (IC50) was obtained from the curve. The inhibition constant (Ki) was then calculated using the formula [formula] in which [L] is the concentration of tritiated ligand used and Km is the affinity of the uptake site for the ligand. The Ki values for compounds for formula I and III are given in Table 1 as the means ± sem of three independent determinations."}, "[2]": {"conditions": "Rattus norvegicus, po, 3 h, dose causing 50% prevention of reserpine-induced ptosis, test compound oral, reserpine 0.75 mg/kg intravenous, scored three hours later, read-out: ED50"}},
  "note": "Where a name gives a salt, the structure may show the parent alone. Read-outs that look alike come from different tables or passages of the source.",
  "data": [
    {"smiles": "CN(C)CCCSCC(O)C1(c2ccc(Cl)c(Cl)c2)CCC1.O=C(O)CC(O)(CC(=O)O)C(=O)O", "note": "(single isomer, unassigned; (+)) [Example 17, (+)-1-[1-(3,4-dichlorophenyl)cyclobutyl]-2-[3-(dimethylamino)-propylthio]ethanol citrate]", "values": [
      {"measurement": "ED50", "setting": "[1]; dose causing 50% prevention of reserpine-induced ptosis, test compound oral, reserpine 0.75 mg/kg intravenous, scored three hours later, citrate", "result": 2.5, "unit": "mg/kg"}
    ]},
    {"smiles": "CN(C)CCS(=O)(=O)CC(=O)C1(c2ccc(Cl)c(Cl)c2)CCC1.Cl", "note": "[Example 3, 1-[1-(3,4-dichlorophenyl)cyclobutyl]-2-[2-(dimethylamino)ethylsulphonyl]ethanone hydrochloride]", "values": [
      {"measurement": "ED50", "setting": "[1]; [2]", "result": 5.9, "unit": "mg/kg"}
    ]},
    {"smiles": "CN(C)CCCSCC(O)C1(c2ccc(Cl)c(Cl)c2)CCC1", "note": "(stereo not drawn) [Example 9, 1-[1-(3,4-dichlorophenyl)cyclobutyl]-2-[3-(dimethylamino)propyl-thio]ethanol]", "values": [
      {"measurement": "Ki", "setting": "dopamine reuptake sites", "result": "7.3 ± 1.6", "unit": "nM"},
      {"measurement": "ED50", "setting": "[1]; [2]", "result": 4.8, "unit": "mg/kg"}
    ]},
    {"smiles": "CN(C)CCCCSCC(=O)C1(c2ccc(Cl)c(Cl)c2)CCC1.Cl", "note": "[Example 13, 1-[1-(3,4-dichlorophenyl)cyclobutyl]-2-[4-(dimethylamino)-butylthio]ethanone hydrochloride]", "values": [
      {"measurement": "Ki", "setting": "dopamine reuptake sites", "result": "6.5 ± 1", "unit": "nM"},
      {"measurement": "ED50", "setting": "[1]; [2]", "result": 5.9, "unit": "mg/kg"}
    ]},
    {"smiles": "CN(C)CCSCC(=O)C1(c2ccc(Cl)c(Cl)c2)CCC1.Cl", "note": "[Example 1, 1-[1-(3,4-dichlorophenyl)cyclobutyl]-2-[2-(dimethyl-amino)ethylthio]ethanone hydrochloride]", "values": [
      {"measurement": "ED50", "setting": "[1]; [2]", "result": 8.5, "unit": "mg/kg"}
    ]},
    {"smiles": "CN(C)CCCSCC(=O)C1(c2ccc(Cl)c(Cl)c2)CCC1.O=C(O)/C=C/C(=O)O", "note": "[Example 15, 1-[1-(3,4-dichloro-phenyl)cyclobutyl]-2-[3-(dimethylamino)propylthio]ethanone fumarate]", "values": [
      {"measurement": "Ki", "setting": "dopamine reuptake sites", "result": "3.7 ± 0.4", "unit": "nM"},
      {"measurement": "ED50", "setting": "[1]; [2]", "result": 4, "unit": "mg/kg"}
    ]},
    {"smiles": "CN(C)CC[S+]([O-])CC(=O)C1(c2ccc(Cl)c(Cl)c2)CCC1.Cl", "note": "(stereo not drawn) [Example 2, 1-[1-(3,4-dichlorophenyl)cyclobutyl]-2-[2-(dimethylamino)ethylsulphinyl]ethanone hydrochloride]", "values": [
      {"measurement": "ED50", "setting": "[1]; [2]", "result": 7.7, "unit": "mg/kg"}
    ]},
    {"smiles": "CN(C)CCSCC(O)C1(c2ccc(Cl)c(Cl)c2)CCC1.Cl", "note": "(stereo not drawn) [Example 6, 1-[1-(3,4-dichlorophenyl)cyclobutyl]-2-[2-(dimethyl-amino)ethylthio]ethanol hydrochloride]", "values": [
      {"measurement": "ED50", "setting": "[1]; [2]", "result": 5.7, "unit": "mg/kg"}
    ]},
    {"smiles": "CN(C)CCCSCC(=O)C1(c2ccc(Cl)c(Cl)c2)CCCC1.Cl", "note": "[Example 20, 1-[1-(3,4-dichlorophenyl)cyclopentyl]-2-[3-(dimethylamino)propylthio]ethanone hydrochloride]", "values": [
      {"measurement": "Ki", "setting": "dopamine reuptake sites", "result": "4.4 ± 0.2", "unit": "nM"},
      {"measurement": "ED50", "setting": "[1]; [2]", "result": 3.7, "unit": "mg/kg"}
    ]},
    {"smiles": "CN(C)CCCSCC(=O)C1(c2ccc(Cl)c(Cl)c2)CCC1.O=C(O)CC(O)(CC(=O)O)C(=O)O", "note": "[Example 18, 1-[1-(3,4-dichlorophenyl)cyclobutyl]-2-[3-(dimethylamino)propylthio]ethanone citrate]", "values": [
      {"measurement": "Ki", "setting": "dopamine reuptake sites", "result": "4.2 ± 0.4", "unit": "nM"},
      {"measurement": "ED50", "setting": "[1]; Rattus norvegicus, po, 3 h", "result": 4.9, "unit": "mg/kg"}
    ]},
    {"smiles": "CN(CCSCC(=O)C1(c2ccc(Cl)c(Cl)c2)CCC1)Cc1ccccc1.Cl", "note": "[Example 5, 2-[2-(N-benzyl-N-methylamino)ethylthio]-1-[1-(3,4-dichlorophenyl)cyclobutyl]ethanone hydrochloride]", "values": [
      {"measurement": "ED50", "setting": "[1]; [2]", "result": 16.4, "unit": "mg/kg"}
    ]},
    {"smiles": "CN(C)CCSCC(=O)C1(c2ccc3ccccc3c2)CCC1.Cl", "note": "[Example 11, 2-[2-(dimethylamino)ethylthio]-1-[1-(2-naphthyl)cyclobutyl]ethanone hydrochloride]", "values": [
      {"measurement": "ED50", "setting": "[1]; [2]", "result": 24.1, "unit": "mg/kg"}
    ]},
    {"smiles": "CN(C)CCCSCC(=O)C1(c2cccc(Cl)c2)CCC1.Cl", "note": "[Example 12, 1-[1-(3-chlorophenyl)cyclobutyl]-2-[3-(dimethylamino)propylthio]ethanone hydrochloride]", "values": [
      {"measurement": "ED50", "setting": "[1]; [2]", "result": 23.4, "unit": "mg/kg"}
    ]},
    {"smiles": "CN(C)CCCSCC(=O)C1(c2ccc(Cl)c(Cl)c2)CCC1.Cl", "note": "[Example 7, 1-[1-(3,4-dichlorophenyl)-cyclobutyl]-2-[3-(dimethylamino)propylthio]ethanone hydrochloride]", "values": [
      {"measurement": "Ki", "setting": "dopamine reuptake sites", "result": "5 ± 0.5", "unit": "nM"},
      {"measurement": "ED50", "setting": "[1]; [2]", "result": 4.2, "unit": "mg/kg"}
    ]},
    {"smiles": "CCCN(CCC)CCCSCC(=O)C1(c2ccc(Cl)c(Cl)c2)CCC1", "note": "[Example 14, 1-[1-(3,4-dichlorophenyl)cyclobutyl]-2-[3-(dipropylamino)propylthio]ethanone]", "values": [
      {"measurement": "Ki", "setting": "dopamine reuptake sites", "result": "13.4 ± 2.1", "unit": "nM"},
      {"measurement": "ED50", "setting": "[1]; [2]", "result": 7.3, "unit": "mg/kg"}
    ]},
    {"smiles": "CC(CSCC(=O)C1(c2ccc(Cl)c(Cl)c2)CCC1)CN(C)C", "note": "(stereo not drawn) [Example 10, 1-[1-(3,4-dichlorophenyl)cyclobutyl]-2-[3-(dimethylamino)-2-methylpropylthio]ethanone]", "values": [
      {"measurement": "Ki", "setting": "dopamine reuptake sites", "result": "7.2 ± 1", "unit": "nM"},
      {"measurement": "ED50", "setting": "[1]; [2]", "result": 8.7, "unit": "mg/kg"}
    ]},
    {"smiles": "CN(C)CCCS(=O)(=O)CC(=O)C1(c2ccc(Cl)c(Cl)c2)CCC1.Cl", "note": "[Example 8, 1-[1-(3,4-dichlorophenyl)cyclobutyl]-2-[3-(dimethylamino)propylsulphonyl]ethanone hydrochloride]", "values": [
      {"measurement": "Ki", "setting": "dopamine reuptake sites", "result": "13.4 ± 0.1", "unit": "nM"},
      {"measurement": "ED50", "setting": "[1]; [2]", "result": 3.4, "unit": "mg/kg"}
    ]},
    {"smiles": "CC(CSCC(O)C1(c2ccc(Cl)c(Cl)c2)CCC1)CN(C)C", "note": "(stereo not drawn) [Example 19, 1-[1-(3,4-dichlorophenyl)cyclobutyl]-2-[3-(dimethylamino)-2-methylpropylthio]ethanol]", "values": [
      {"measurement": "Ki", "setting": "dopamine reuptake sites", "result": "6.9 ± 0.6", "unit": "nM"},
      {"measurement": "ED50", "setting": "[1]; [2]", "result": 6.9, "unit": "mg/kg"}
    ]},
    {"smiles": "CCN(CC)CCSCC(=O)C1(c2ccc(Cl)c(Cl)c2)CCC1", "note": "[Example 4, 1-[1-(3,4-dichlorophenyl)cyclobutyl]-2-[2-(diethylamino)ethylthio]ethanonehydrochloride]", "values": [
      {"measurement": "ED50", "setting": "[1]; [2]", "result": 9.7, "unit": "mg/kg"}
    ]},
    {"smiles": "CN(C)CCCSCC(O)C1(c2ccc(Cl)c(Cl)c2)CCC1.O=C(O)CC(O)(CC(=O)O)C(=O)O", "note": "(single isomer, unassigned; (-)) [Example 16, (-)-1-[1-(3,4-dichlorophenyl)cyclobutyl]-2-[3-(dimethylamino)propylthio]ethanol citrate]", "values": [
      {"measurement": "ED50", "setting": "[1]; [2]", "result": 2.2, "unit": "mg/kg"}
    ]}
  ]
}
